Laboratory results: PubChem BioAssay AID652230 (The Scripps Research Institute Molecular Screening Center, 2013)
The source made the active and inactive calls.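 The calls were made as follows: active = IC50 below 10 µM for blocking the phosphatase PP5; inactive = IC50 at or above 10 µM.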

Target: Serine/threonine-protein phosphatase 5 (Homo sapiens) (UniProt P53041)
Experiment: PP5 catalytic domain inhibition, concentration series – biochemical, fluorescence, OMFP substrate, powder samples, set 2, selectivity assay for PP1 inhibitor project, dose response (AID 652230)
Conditions: purified PP5c, OMFP dephosphorylation

Serine/threonine-protein phosphatase 5 (Homo sapiens), sequence (P53041 whole entry, looked up, the tested form may be a part): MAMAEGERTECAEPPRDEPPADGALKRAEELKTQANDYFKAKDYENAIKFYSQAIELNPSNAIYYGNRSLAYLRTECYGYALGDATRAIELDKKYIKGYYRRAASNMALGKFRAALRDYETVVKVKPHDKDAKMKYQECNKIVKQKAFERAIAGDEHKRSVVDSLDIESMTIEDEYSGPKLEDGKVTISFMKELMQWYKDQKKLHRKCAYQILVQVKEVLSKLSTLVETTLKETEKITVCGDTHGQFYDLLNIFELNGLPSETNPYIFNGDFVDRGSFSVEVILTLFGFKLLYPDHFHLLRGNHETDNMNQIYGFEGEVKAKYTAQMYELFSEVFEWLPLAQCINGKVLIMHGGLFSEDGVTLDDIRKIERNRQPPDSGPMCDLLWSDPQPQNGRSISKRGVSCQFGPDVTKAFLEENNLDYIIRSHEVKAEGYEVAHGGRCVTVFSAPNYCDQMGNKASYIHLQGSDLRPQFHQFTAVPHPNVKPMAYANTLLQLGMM

IC50 | SMILES
inactive | CN1CCN([C@@H](c2ncccn2)c2ccc3cccnc3c2O)CC1
inactive | CN1CCN([C@H](c2ncccn2)c2ccc3cccnc3c2O)CC1
